Experiment [1] deals with HeLa. Nature of the experiment: Cytotoxicity against human HeLa cells assessed as cell viability at 120 uM after 3 days by CellTiter96 Aqueous One Solution assay. In kind it is functional, cell-based.
Experiment [2] concerns HeLa. The experiment is described as follows: Cytotoxicity against human HeLa cells assessed as cell viability at 120 uM after 3 days by CellTiter96 Aqueous One Solution assay (reference value: 100%). In kind it is functional. Conditions: 72 h, read-out: Activity.
Experiment [3] concerns the target T1, ATP-dependent translocase ABCB1 (Homo sapiens, UniProt P08183). The experiment is described as follows: Inhibition of P-glycoprotein 1 in human HeLa cells assessed as intracellular accumulation of Hoechst 33342 dye after 30 mins by fluorescence microscopic analysis. In kind it is cell-based.
The target in experiment [4] is T1, ATP-dependent translocase ABCB1. The experiment is described as follows: Inhibition of human P-glycoprotein 1 ATPase activity assessed as remaining ATP level by luminescence analysis.
Experiment [5] concerns HeLa. The experiment is described as follows: Effect on apoptosis in human HeLa cells assessed as cell morphology and extracellular membrane after 48 hrs. In kind it is functional, cell-based.
The next experiment deals with T2, DNA topoisomerase 1 (Homo sapiens, UniProt P11387).
T2 sequence (P11387 whole entry): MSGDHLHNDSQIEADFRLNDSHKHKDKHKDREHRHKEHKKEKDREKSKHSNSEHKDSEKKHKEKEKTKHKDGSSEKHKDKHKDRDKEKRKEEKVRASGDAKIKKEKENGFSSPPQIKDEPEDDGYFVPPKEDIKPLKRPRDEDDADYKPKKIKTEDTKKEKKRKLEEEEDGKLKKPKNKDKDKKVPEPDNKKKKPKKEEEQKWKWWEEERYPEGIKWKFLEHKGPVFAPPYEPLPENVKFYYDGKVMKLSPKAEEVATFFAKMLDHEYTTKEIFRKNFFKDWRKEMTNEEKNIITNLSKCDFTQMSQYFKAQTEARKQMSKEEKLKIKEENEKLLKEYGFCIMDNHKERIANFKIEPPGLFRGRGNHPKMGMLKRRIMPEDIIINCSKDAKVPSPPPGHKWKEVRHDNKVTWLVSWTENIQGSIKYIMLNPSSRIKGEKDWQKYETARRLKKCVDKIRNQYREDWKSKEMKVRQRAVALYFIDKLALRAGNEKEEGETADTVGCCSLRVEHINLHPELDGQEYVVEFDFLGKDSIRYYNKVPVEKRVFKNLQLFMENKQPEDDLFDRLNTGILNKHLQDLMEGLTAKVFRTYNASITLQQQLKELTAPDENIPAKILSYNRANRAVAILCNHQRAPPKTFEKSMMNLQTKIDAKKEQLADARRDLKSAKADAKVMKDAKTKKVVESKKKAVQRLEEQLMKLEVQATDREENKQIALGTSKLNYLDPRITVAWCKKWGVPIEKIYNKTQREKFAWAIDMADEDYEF
Nature of the experiment: Inhibition of human topoisomerase 1 activity assessed as DNA triplex formation and presence of supercoiled DNA by microplate assay.

The subject of another experiment is Escherichia coli. The experiment is described as follows: Inhibition of Escherichia coli topoisomerase assessed as bacterial proliferation at 200 uM after 24 hrs by visual inspection assay.

The text below walks through data of ChEMBL document CHEMBL3217430, “Experimental validation of in silico target predictions on synergistic protein targets” (Medchemcomm, 2013).

The term pIC50 denotes the IC50 on a negative log10 scale, so that one unit is a factor of ten.

pIC50: −log10 of the molar value. Activity calls are given as the source filed them. The calls are words filed in the database; no cut-off is given here.

T1 sequence (P08183 whole entry): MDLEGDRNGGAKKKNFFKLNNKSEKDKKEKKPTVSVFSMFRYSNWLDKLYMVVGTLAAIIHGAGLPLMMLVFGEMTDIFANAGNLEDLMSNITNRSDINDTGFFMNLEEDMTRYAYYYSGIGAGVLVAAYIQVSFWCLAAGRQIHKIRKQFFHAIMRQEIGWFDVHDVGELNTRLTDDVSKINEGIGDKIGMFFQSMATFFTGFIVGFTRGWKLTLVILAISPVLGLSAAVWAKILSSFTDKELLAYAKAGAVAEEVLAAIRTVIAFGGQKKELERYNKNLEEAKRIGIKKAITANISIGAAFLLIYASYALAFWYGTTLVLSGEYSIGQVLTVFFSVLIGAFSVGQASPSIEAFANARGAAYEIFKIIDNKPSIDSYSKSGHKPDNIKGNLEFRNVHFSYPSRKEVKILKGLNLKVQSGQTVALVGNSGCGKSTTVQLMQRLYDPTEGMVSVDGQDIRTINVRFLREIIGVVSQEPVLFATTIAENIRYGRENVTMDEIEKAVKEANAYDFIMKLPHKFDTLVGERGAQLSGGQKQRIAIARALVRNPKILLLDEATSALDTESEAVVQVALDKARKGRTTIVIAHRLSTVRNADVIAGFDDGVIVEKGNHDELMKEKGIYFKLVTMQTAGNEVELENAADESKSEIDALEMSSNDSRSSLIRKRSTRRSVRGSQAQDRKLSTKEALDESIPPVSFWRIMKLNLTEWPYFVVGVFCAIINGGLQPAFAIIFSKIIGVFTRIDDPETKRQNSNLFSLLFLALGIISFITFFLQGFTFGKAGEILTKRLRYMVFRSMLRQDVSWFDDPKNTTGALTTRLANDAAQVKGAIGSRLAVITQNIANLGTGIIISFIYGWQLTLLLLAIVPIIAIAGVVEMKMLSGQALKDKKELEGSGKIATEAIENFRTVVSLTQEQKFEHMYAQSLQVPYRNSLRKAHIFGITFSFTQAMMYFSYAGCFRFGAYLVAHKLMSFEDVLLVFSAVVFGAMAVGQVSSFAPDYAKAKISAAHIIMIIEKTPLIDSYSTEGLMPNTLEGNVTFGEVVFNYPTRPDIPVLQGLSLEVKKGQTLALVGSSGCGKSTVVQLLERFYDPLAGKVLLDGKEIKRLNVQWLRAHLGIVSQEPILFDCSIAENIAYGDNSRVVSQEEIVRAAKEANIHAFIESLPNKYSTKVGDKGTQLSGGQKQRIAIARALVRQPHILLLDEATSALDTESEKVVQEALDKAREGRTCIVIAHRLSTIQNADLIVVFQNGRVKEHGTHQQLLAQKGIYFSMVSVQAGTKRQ

Take `CO[C@@H]1O[C@H](CO)[C@H](O)[C@H](O)[C@H]1O`: in the experiment on HeLa [1], the result was inactive.

For the molecule `CC(=O)c1ccc(OCC(O)CN2CCN(C(c3ccccc3)c3ccccc3)CC2)cc1` (centres undefined), in the experiment on HeLa [2], the viability at 120 µM stood at 37%. Regarding `CC(=O)OCC1OC(Sc2ccccc2)C(OC(C)=O)C(OC(C)=O)C1OC(C)=O` (centres undefined), the figures for the pIC50 in experiment [3] and in experiment [4] were 4.81 and 4.43, respectively. The viability at 120 µM with HeLa [2] worked out at 87%. Also, the result with HeLa [5] was inactive.

On to `CC(=O)OC[C@H](OC(C)=O)[C@H](OC(C)=O)[C@@H](CNC(=O)c1ccc(C)c(C)c1)OC(C)=O`, for which the pIC50 in experiment [3] was 4.81; in experiment [4], 4.55. Besides, the result in the experiment with HeLa [5] and in the experiment with HeLa [1] was inactive. In the case of `CC(=O)OCC(OC(C)=O)C(OC(C)=O)C(O)C1SCC(C(=O)N(C)C)N1C(C)=O` (centres undefined), the outcome in the experiment with HeLa [1] was inactive. As for `O=c1c(-c2ccc3c(c2)OCCO3)coc2cc(OC3OC(CO)C(O)C(O)C3O)ccc12` (centres undefined), the viability at 120 µM in the experiment with HeLa [2] is 82%. With `CN(C=C(C#N)C#N)CC(O)C(O)C(O)C(O)CO` (centres undefined), the pIC50 at DNA topoisomerase 1 is 4.32. For the same molecule, the inhibition result with Escherichia coli was “inactive”. In the experiment on HeLa [1], the result was inactive. As for `CCSC(SCC)C(O)C(O)C(O)C(O)CO` (centres undefined), the outcome with HeLa [1] was inactive. Regarding `NC(=O)c1ncn([C@@H]2O[C@H](CO)[C@@H](O)[C@H]2O)n1` [RIBAVIRIN], the pIC50 at DNA topoisomerase 1 was 4.18. The inhibition result with Escherichia coli is “inactive”. On to `CC(=O)OCC(OC(C)=O)C(OC(C)=O)C(OC(C)=O)C(OC(C)=O)C(OC(C)=O)OC(C)=O` (centres undefined), for which the outcome in the experiment on HeLa [1] was inactive.
